Experiments:
[1] = biological target: T1, human cloned CHRM4 receptor (Homo sapiens, UniProt P08173); experiment: CHRM4 Ca++ Flux Assay (M4_CHO cells, agonist mode); assay type: cell-based; settings: for M4 FDSS PA % / Emax: Percent Activity (PA); for EC50: geometric mean if tested more than once, read-out: M4 FDSS EC50; for Emax: read-out: M4 FDSS PA %
T1 construct: expressed in transfected cells; host or cells: CHO-K1 (M4_CHO)
T1 sequence (P08173 1-479): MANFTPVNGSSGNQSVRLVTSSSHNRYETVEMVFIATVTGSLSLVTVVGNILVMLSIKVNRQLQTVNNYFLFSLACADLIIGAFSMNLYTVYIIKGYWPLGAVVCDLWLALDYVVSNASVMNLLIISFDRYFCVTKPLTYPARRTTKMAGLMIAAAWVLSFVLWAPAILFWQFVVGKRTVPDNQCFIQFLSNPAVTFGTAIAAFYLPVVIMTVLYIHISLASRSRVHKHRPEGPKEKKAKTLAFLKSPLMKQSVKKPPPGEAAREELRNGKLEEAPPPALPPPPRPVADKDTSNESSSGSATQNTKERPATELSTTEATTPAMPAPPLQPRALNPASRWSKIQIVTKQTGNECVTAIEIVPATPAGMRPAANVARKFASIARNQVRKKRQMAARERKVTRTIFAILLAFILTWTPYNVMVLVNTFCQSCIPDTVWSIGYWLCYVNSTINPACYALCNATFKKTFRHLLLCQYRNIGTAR
Procedure, shortened: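 Agonist-mode calcium flux in an M4-expressing CHO-K1 line: compounds were dosed at 11 points in triplicate and fluorescence was tracked for 3 min. Cells were preloaded with Ca++ dye and kept in −Ca/−Mg HBSS with 20 μM ATP for 60 min. Efficacy is scaled to carbachol EC100; EC50s come from four-parameter regression, geometric mean across runs.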

[2] = biological target: T2, Cloned human M1 receptor (CHRM1) (Homo sapiens, UniProt P11229); experiment: CHRM1 Ca++ Flux Assay (HEK293 M1 cells, agonist mode); assay type: cell-based; settings: for M1 FDSS PA % / Emax: Percent Activity (PA); for EC50: geometric mean if tested more than once, read-out: M1 FDSS EC50; for Emax: read-out: M1 FDSS PA %
T2 construct: expressed in transfected cells; host or cells: HEK293
T2 sequence (P11229 1-460): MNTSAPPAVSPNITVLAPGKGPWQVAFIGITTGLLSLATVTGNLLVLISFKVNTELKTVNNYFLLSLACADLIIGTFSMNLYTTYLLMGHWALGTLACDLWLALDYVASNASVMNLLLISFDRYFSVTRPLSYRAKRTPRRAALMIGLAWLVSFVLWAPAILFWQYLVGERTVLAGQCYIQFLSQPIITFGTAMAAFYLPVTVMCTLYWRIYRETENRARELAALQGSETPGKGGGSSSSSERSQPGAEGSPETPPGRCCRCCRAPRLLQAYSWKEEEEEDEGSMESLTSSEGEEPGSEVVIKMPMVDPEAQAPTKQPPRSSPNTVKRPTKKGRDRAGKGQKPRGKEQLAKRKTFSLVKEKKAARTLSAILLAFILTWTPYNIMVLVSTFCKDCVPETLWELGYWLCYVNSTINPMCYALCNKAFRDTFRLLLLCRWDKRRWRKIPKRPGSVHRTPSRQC
Procedure, shortened: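 In agonist mode, compound-induced intracellular Ca++ mobilization was recorded for 3 min by fluorescent imager. The cells were HEK293 stably expressing cloned human CHRM1, in Ca/Mg-free HBSS with 20 mM HEPES. Triplicate 11-point dose-responses were fitted by four-parameter regression and normalized to the carbachol EC100 response.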

| M4 FDSS PA % [1] | EC50 [1] | M1 FDSS PA % [2] | EC50 [2] | Emax [1] | Emax [2] | Compound |
| --- | --- | --- | --- | --- | --- | --- |
| 76% | 25 nM | 56% | 848 nM |  |  | Fc1ccc(O[C@H]2CCCOC2)c(C2CCN([C@@H]3COC4(C3)CN(c3nnco3)C4)CC2)c1 (single isomer, unassigned) [Example 2R, (S)-7-(4-(5-fluoro-2-(((S)-tetrahydro-2H-pyran-3-yl)oxy)phenyl)piperidin-1-yl)-2-(1,3,4-oxadiazol-2-yl)-5-oxa-2-azaspiro[3.4]octane or (S)-7-(4-(5-fluoro-2-(((R)-tetrahydro-2H-pyran-3-yl)oxy)phenyl)piperidin-1-yl)-2-(1,3,4-oxadiazol-2-yl)-5-oxa-2-azaspiro[3.4]octane] |
| 70% | 87 nM | 66% | 3440 nM |  |  | CC(C)(O)[C@H]1C[C@H](Oc2ccc(F)cc2C2CCN([C@@H]3COC4(C3)CN(c3nnco3)C4)CC2)C1 (single isomer, unassigned) [Example 2W, 2-((1S,3r)-3-(2-(1-((S)-2-(1,3,4-oxadiazol-2-yl)-5-oxa-2-azaspiro[3.4]octan-7-yl)piperidin-4-yl)-4-fluorophenoxy)cyclobutyl)propan-2-ol or 2-((1R,3s)-3-(2-(1-((S)-2-(1,3,4-oxadiazol-2-yl)-5-oxa-2-azaspiro[3.4]octan-7-yl)piperidin-4-yl)-4-fluorophenoxy)cyclobutyl)propan-2-ol] |
|  | 185 nM |  | 7240 nM | 82% | 44% | c1ccc(C2CCN([C@@H]3COC4(C3)CN(c3nnco3)C4)CC2)c(CC2CCOCC2)c1 [Example 3G, (S)-2-(1,3,4-oxadiazol-2-yl)-7-(4-(2-((tetrahydro-2H-pyran-4-yl)methyl)phenyl)piperidin-1-yl)-5-oxa-2-azaspiro[3.4]octane] |
|  | 184 nM |  | 3890 nM | 85% | 78% | c1ccc(C2CCN([C@@H]3COC4(C3)CN(c3nnco3)C4)CC2)c(C2CCOCC2)c1 [Example 3C, (S)-2-(1,3,4-oxadiazol-2-yl)-7-(4-(2-(tetrahydro-2H-pyran-4-yl)phenyl)piperidin-1-yl)-5-oxa-2-azaspiro[3.4]octane] |
|  | 11 nM |  | 294 nM | 60% | 71% | Fc1cc(OC2COC2)c(C2CCN([C@@H]3COC4(C3)CN(c3ncco3)C4)CC2)cc1F [Example 4Q, (S)-7-(4-(4,5-difluoro-2-(oxetan-3-yloxy)phenyl)piperidin-1-yl)-2-(oxazol-2-yl)-5-oxa-2-azaspiro[3.4]octane] |
|  | < 0.4 nM |  | 11 nM | 90% | 106% | Cc1nc(COc2ccccc2C2CCN([C@@H]3COC4(C3)CN(c3nncs3)C4)CC2)no1 [Example 5F, (S)-7-(4-(2-((5-methyl-1,2,4-oxadiazol-3-yl)methoxy)phenyl)piperidin-1-yl)-2-(1,3,4-thiadiazol-2-yl)-5-oxa-2-azaspiro[3.4]octane] |
| 63% | 25 nM | 63% | 909 nM |  |  | CC(C)(O)[C@H]1C[C@@H](Oc2ccc(F)cc2C2CCN([C@@H]3COC4(C3)CN(c3ncco3)C4)CC2)C1 (single isomer, unassigned) [Example 4T, 2-((1R,3s)-3-(4-fluoro-2-(1-((S)-2-(oxazol-2-yl)-5-oxa-2-azaspiro[3.4]octan-7-yl)piperidin-4-yl)phenoxy)cyclobutyl)propan-2-ol or 2-((1S,3r)-3-(4-fluoro-2-(1-((S)-2-(oxazol-2-yl)-5-oxa-2-azaspiro[3.4]octan-7-yl)piperidin-4-yl)phenoxy)cyclobutyl)propan-2-ol] |
|  | 26 nM |  | 264 nM | 66% | 70% | Fc1cc(OC2COC2)c(C2CCN([C@@H]3COC4(C3)CN(c3nnco3)C4)CC2)cc1F [Example 2FF, (S)-7-(4-(4,5-difluoro-2-(oxetan-3-yloxy)phenyl)piperidin-1-yl)-2-(1,3,4-oxadiazol-2-yl)-5-oxa-2-azaspiro[3.4]octane] |
|  | 10 nM |  | 598 nM | 84% | 72% | Fc1ccc(OC[C@@H]2CCOC2)c(C2CCN([C@@H]3COC4(C3)CN(c3nnco3)C4)CC2)c1 [Example 1B, (S)-7-(4-(5-fluoro-2-(((R)-tetrahydrofuran-3-yl)methoxy)phenyl)piperidin-1-yl)-2-(1,3,4-oxadiazol-2-yl)-5-oxa-2-azaspiro[3.4]octane] |
|  | 155 nM |  | 1120 nM | 64% | 67% | Fc1cc(F)c(OCC2COC2)c(C2CCN([C@@H]3COC4(C3)CN(c3nnco3)C4)CC2)c1 [Example 2DD, (S)-7-(4-(3,5-difluoro-2-(oxetan-3-ylmethoxy)phenyl)piperidin-1-yl)-2-(1,3,4-oxadiazol-2-yl)-5-oxa-2-azaspiro[3.4]octane] |
|  | 86 nM |  | 2340 nM | 74% | 95% | Fc1cc(F)c(OC2COC2)c(C2CCN([C@@H]3COC4(C3)CN(c3nnco3)C4)CC2)c1 [Example 2EE, (S)-7-(4-(3,5-difluoro-2-(oxetan-3-yloxy)phenyl)piperidin-1-yl)-2-(1,3,4-oxadiazol-2-yl)-5-oxa-2-azaspiro[3.4]octane] |
| 81% | 124 nM | 107% | 4050 nM |  |  | OC[C@H]1C[C@H](Oc2ccc(F)cc2C2CCN([C@@H]3COC4(C3)CN(c3nnco3)C4)CC2)C1 (single isomer, unassigned) [Example 2II, ((1S,3r)-3-(2-(1-((S)-2-(1,3,4-oxadiazol-2-yl)-5-oxa-2-azaspiro[3.4]octan-7-yl)piperidin-4-yl)-4-fluorophenoxy)cyclobutyl)methanol or ((1R,3s)-3-(2-(1-((S)-2-(1,3,4-oxadiazol-2-yl)-5-oxa-2-azaspiro[3.4]octan-7-yl)piperidin-4-yl)-4-fluorophenoxy)cyclobutyl)methanol] |
|  | 87 nM |  | 2900 nM | 58% | 64% | Fc1cc(OC2CCOCC2)c(C2CCN([C@@H]3COC4(C3)CN(c3nnco3)C4)CC2)cc1F [Example 2GG, (S)-7-(4-(4,5-difluoro-2-((tetrahydro-2H-pyran-4-yl)oxy)phenyl)piperidin-1-yl)-2-(1,3,4-oxadiazol-2-yl)-5-oxa-2-azaspiro[3.4]octane] |
|  | 4 nM |  | 234 nM | 80% | 84% | Fc1ccc(OC2COC2)c(C2CCN([C@@H]3COC4(C3)CN(c3ncco3)C4)CC2)c1 [Example 4A, (S)-7-(4-(5-fluoro-2-(oxetan-3-yloxy)phenyl)piperidin-1-yl)-2-(oxazol-2-yl)-5-oxa-2-azaspiro[3.4]octane] |
|  | 345 nM |  | 2580 nM | 39% | 29% | COc1cc(F)ccc1C1CCN([C@@H]2COC3(C2)CN(c2ncns2)C3)CC1 [Example 5E, (S)-7-(4-(4-fluoro-2-methoxyphenyl)piperidin-1-yl)-2-(1,2,4-thiadiazol-5-yl)-5-oxa-2-azaspiro[3.4]octane] |
|  | 5 nM |  | 334 nM | 63% | 89% | Fc1cc(OCC2(F)COC2)c(C2CCN([C@@H]3COC4(C3)CN(c3ncco3)C4)CC2)cc1F [Example 4P, (S)-7-(4-(4,5-difluoro-2-((3-fluorooxetan-3-yl)methoxy)phenyl)piperidin-1-yl)-2-(oxazol-2-yl)-5-oxa-2-azaspiro[3.4]octane] |

| Compound | M4 FDSS PA % [1] | EC50 [1] | M1 FDSS PA % [2] | EC50 [2] | Emax [1] | Emax [2] |
| --- | --- | --- | --- | --- | --- | --- |
| Fc1ccc(OC[C@H]2CCO2)c(C2CCN([C@@H]3COC4(C3)CN(c3nncs3)C4)CC2)c1.O=C(O)C(F)(F)F (single isomer, unassigned) [Example 2D, (S)-7-(4-(5-fluoro-2-(((R)-oxetan-2-yl)methoxy)phenyl)piperidin-1-yl)-2-(1,3,4-thiadiazol-2-yl)-5-oxa-2-azaspiro[3.4]octane trifluoroacetate or (S)-7-(4-(5-fluoro-2-(((S)-oxetan-2-yl)methoxy)phenyl)piperidin-1-yl)-2-(1,3,4-thiadiazol-2-yl)-5-oxa-2-azaspiro[3.4]octane trifluoroacetate] | 72% | 20 nM | 72% | 289 nM |  |  |
